{"source": "patent US20080242681A1", "about": "“N-4-(6-(Hetero)Aryl-Pyrimidin-4-Ylaminophenyl)-Benzenesulfonamides as Kinase Inhibitors” (Altana Pharma AG, priority 2004, published 2008)", "key": {"PKCβ1": {"biological_target": "T1, PKCβ1 (Homo sapiens, UniProt P05771)", "T1 construct": "purchased Panvera", "T1 sequence (P05771 whole entry, canonical isoform)": "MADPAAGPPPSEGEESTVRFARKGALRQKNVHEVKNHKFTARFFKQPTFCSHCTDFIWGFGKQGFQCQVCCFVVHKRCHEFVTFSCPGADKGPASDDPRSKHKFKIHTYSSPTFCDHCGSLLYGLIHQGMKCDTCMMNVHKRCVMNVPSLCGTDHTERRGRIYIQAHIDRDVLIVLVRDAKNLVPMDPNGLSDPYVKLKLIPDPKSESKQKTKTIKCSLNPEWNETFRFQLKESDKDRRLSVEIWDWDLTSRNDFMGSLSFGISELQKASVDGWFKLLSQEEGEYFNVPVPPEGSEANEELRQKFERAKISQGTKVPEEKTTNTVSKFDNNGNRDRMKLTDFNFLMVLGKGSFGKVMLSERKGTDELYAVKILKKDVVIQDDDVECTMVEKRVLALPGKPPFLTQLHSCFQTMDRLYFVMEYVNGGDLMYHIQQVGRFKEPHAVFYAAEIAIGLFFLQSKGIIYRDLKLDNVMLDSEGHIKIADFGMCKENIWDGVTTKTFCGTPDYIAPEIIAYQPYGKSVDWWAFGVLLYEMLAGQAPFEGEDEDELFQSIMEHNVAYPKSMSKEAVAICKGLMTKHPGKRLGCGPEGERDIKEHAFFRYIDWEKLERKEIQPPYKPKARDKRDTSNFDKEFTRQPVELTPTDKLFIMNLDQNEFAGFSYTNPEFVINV", "assay": "Protein Kinase Cβ1 assay (SPA)", "assay_type": "biochemical", "settings": "human recombinant PKCβ1, SPA, biotinylated PKCα pseudosubstrate, 0.5 mM CaCl2; read-out: IC50, inhibition of PKC β1", "experimental": "(§1) The compounds of formula 1 are tested for their activity on different protein kinases and PKC isoforms using a scintillation proximity assay (SPA, Amersham International plc). ^33P-labeled peptides are captured onto streptavidin coated yttrium silicate SPA beads. β-particles, emitted from the captured ^33P-labeled substrate in close proximity to the bead are able to excite the scintillant, resulting in the generation of quantifiable light. The assay is performed in a 96-well polystyrene microtiterplate (1450-514, Isoplates, Wallac, Turku, Finland). The reaction mixture (50 μl) contains 10 μl of the test compound together with 10 μl of the relevant kinase, diluted in the relevant dilution buffer, 5 μl of 10 μM phorbol myristate acetate (PMA) in H2O, 5 μl of 1.6 mM phosphatidylserine (Sigma-Aldrich Chemie GmbH, Stein-heim, Germany) in 20 mM Tris/HCL buffer pH 7.4, 5 μl of 0.3% BSA in H2O, 5 μl of 30 μM relevant substrate and 10 μl of 5 μM ATP and 0.1 μCi of ^33P-ATP (Amersham, Freiburg, Germany) in 200 mM Tris/HCL pH 7.5 and 200 mM MgCl2. Incubation is performed for 40 min at room temperature (RT) without shaking. Reaction is stopped by adding 150 μl of cold stop solution containing 10 mM ATP, 5 mM EGTA pH 7.5, 0.1% Triton X-100 and 0.2 mg streptavidin coated yttrium silicate SPA beads (Amersham, RPNQ 0012). The sealed plate is incubated for 60 min at RT. Thereafter the MTP is counted in a Microbeta Jet (Wallac). IC50 measurement is performed on a routine basis by incubation a serial dilution of inhibitor at concentrations ranging between 0.01 and 100 μM according to the method described above. Background values are the signals of the reaction mixture without addition of the relevant kinase and are subtracted from all values. 100% values are the signals of the reaction mixture without addition of inhibitors.\nDependent on the efficacy of the inhibitors In the various test systems, corresponding IC50 values are calculated from concentration-inhibition curves by nonlinear regression analysis using the program GraphPad Prism (GraphPad Software Inc., San Diego, Calif.).\nHuman recombinant PKCβ1 was obtained from Panvera and is used under the assay conditions as described above (Section A.1). The enzyme is diluted in PKC dilution buffer containing 1 mM Hepes pH 7.4, 0.5 mM DTT and 0.001% Triton X-100. The assay additionally contains 0.5 mM CaCl2. The kinase reaction is performed with the biotinylated PKCα pseudosubstrate solved in H2O. The examples 29, 45, 52, 128 and 139 inhibit PKC β1 in this assay with an IC50 between 2 and 40 μM."}, "Lck": {"biological_target": "T2, Lck (Homo sapiens, UniProt P06239)", "T2 construct": "purchased Upstate (Dundee, UK)", "T2 sequence (P06239 whole entry, canonical isoform)": "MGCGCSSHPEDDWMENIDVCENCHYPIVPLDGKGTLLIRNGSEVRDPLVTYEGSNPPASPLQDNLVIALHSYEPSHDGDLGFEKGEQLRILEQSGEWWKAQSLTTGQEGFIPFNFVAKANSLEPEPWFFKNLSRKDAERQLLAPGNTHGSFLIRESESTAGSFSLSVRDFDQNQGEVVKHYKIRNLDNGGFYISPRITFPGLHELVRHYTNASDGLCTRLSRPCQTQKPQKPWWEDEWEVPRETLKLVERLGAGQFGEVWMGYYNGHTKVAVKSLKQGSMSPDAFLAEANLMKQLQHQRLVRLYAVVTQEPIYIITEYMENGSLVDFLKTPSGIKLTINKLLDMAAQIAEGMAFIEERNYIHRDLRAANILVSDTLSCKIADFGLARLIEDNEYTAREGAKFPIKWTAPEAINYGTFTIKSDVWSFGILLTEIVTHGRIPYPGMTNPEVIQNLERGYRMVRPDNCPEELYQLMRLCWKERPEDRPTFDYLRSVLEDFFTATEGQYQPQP", "assay": "Lck (p56Lck) assay (SPA)", "assay_type": "biochemical", "settings": "human recombinant Lck, read-out: IC50, inhibition of Lck", "experimental": "The compounds of formula 1 are tested for their activity on different protein kinases and PKC isoforms using a scintillation proximity assay (SPA, Amersham International plc). ^33P-labeled peptides are captured onto streptavidin coated yttrium silicate SPA beads. β-particles, emitted from the captured ^33P-labeled substrate in close proximity to the bead are able to excite the scintillant, resulting in the generation of quantifiable light. The assay is performed in a 96-well polystyrene microtiterplate (1450-514, Isoplates, Wallac, Turku, Finland). The reaction mixture (50 μl) contains 10 μl of the test compound together with 10 μl of the relevant kinase, diluted in the relevant dilution buffer, 5 μl of 10 μM phorbol myristate acetate (PMA) in H2O, 5 μl of 1.6 mM phosphatidylserine (Sigma-Aldrich Chemie GmbH, Stein-heim, Germany) in 20 mM Tris/HCL buffer pH 7.4, 5 μl of 0.3% BSA in H2O, 5 μl of 30 μM relevant substrate and 10 μl of 5 μM ATP and 0.1 μCi of ^33P-ATP (Amersham, Freiburg, Germany) in 200 mM Tris/HCL pH 7.5 and 200 mM MgCl2. […] Thereafter the MTP is counted in a Microbeta Jet (Wallac). […]\nHuman recombinant Lck was obtained from Upstate (Dundee, UK) and is used in a scintillation proximity assay described in Section A.1. […] Thereafter the MTP is counted in a Microbeta Jet (Wallac). […] IC50 values are calculated from the graph by sigmoidal curve fitting. […]"}, "responder T cells": {"system": "responder T cells", "assay": "Mixed lymphocyte reaction (MLR), T cell proliferation", "assay_type": "cell-based", "settings": "[3H]thymidine incorporation after 48 h, read-out: IC50, inhibition of MLR-mediated T-cell proliferation", "experimental": "For MLR cultures 4×10^5 responder T cells are incubated in duplicates with 2×10^5 mitomycin C-treated allogeneic stimulator T cells in a total volume of 200 μl RPMI 1640 medium supplemented with 10% FCS, 2 mM L-glutamine, 100 U/ml penicillin and 100 μg/ml streptomycin (Gibco Life Technologies) in 96 well tissue culture plates (655180, flat bottom, Greiner). Cells are maintained at 37° C. in a humidified atmosphere of 5% CO2. After 48 h of growth, cells are pulsed with 1 μCi [^3H]thymidine and incorporation of [^3H]thymidine is measured with a Topcount radioactive counter (Packard). To investigate the effect of a test compound on MLR-mediated T cell proliferation six three-fold dilution steps in duplicates per test compound are performed (final DMSO concentration 0.1%). Low control values are the proliferation of responder cells alone; high controls are from mixed lymphocyte cells without any test samples. Low controls are subtracted from all values. The inhibition obtained in the presence of a test compound is calculated as percent Inhibition of the high control. The concentration of test compounds resulting in 50% inhibition (IC50) is determined from the dose-response curves. The examples 91, 128, 133 and 137 inhibit MLR-mediated T-cell proliferation in this assay with an IC50<1 μM."}, "Rsk1": {"biological_target": "T3, Rsk1 (Homo sapiens, UniProt Q15418)", "T3 construct": "purchased Upstate ltd, Dundee, UK (external KinaseProfiler service)", "T3 sequence (Q15418 whole entry)": "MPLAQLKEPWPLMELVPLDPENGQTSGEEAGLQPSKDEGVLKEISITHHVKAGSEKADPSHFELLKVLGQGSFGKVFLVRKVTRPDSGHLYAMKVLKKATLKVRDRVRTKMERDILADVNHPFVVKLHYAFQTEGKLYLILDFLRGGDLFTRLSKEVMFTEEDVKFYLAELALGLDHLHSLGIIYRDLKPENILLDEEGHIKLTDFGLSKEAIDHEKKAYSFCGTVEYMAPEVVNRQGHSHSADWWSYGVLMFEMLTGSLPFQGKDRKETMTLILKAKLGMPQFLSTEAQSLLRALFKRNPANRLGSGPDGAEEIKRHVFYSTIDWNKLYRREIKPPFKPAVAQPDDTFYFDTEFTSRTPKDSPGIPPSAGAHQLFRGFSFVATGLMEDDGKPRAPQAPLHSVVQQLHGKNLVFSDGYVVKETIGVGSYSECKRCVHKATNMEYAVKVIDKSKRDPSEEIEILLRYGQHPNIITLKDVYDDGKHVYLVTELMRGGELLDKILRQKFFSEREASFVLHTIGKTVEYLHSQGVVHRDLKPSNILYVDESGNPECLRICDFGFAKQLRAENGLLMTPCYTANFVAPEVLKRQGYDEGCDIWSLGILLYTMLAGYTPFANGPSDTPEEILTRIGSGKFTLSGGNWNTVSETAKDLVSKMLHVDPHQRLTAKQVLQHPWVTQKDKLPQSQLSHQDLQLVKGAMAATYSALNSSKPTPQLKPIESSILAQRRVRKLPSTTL", "assay": "Rsk1 KinaseProfiler assay (Upstate)", "assay_type": "biochemical", "settings": "human recombinant Rsk, externally tested (IC50Profiler, Upstate), 10 μM ATP; read-out: IC50, inhibition of Rsk1", "experimental": "To investigate the effect of a test compound on p90 ribosomal S6 kinase (Rsk) family, the compounds are externally tested in KinaseProfiler assay (Upstate ltd, Dundee, UK) described in product guide brochure. In brief, in a final reaction volume of 25 μl, 5-10 mU of human recombinant Rsk are incubated with 8 mM MOPS pH 7.0, 0.2 mM EDTA, 30 μM KKKNRTLSVA, 10 mM MgAcetate and 10 μM [γ-33P-ATP]. The reaction is initiated by addition of the MgATP mix. After incubation for 40 minutes at RT, the reaction is stopped by the addition of 5 μl of a 3% phosphoric acid solution. 10 μl of the reaction is then spotted onto P30 filtermat and washed three times for 5 minutes in 75 mM phosphoric acid and once in methanol prior to drying and scintillation counting. The IC50 value is estimated by preparing a 10 point curve using a ½ log dilution series (IC50Profiler, Upstate). The examples 129, 431 and 173 inhibit Rsk1 in this assay with an IC50<1 μM."}, "PKCι": {"biological_target": "T4, PKCι (Homo sapiens, UniProt P41743)", "T4 construct": "made in house; host or cells: Sf21 insect cells", "T4 sequence (P41743 1-596)": "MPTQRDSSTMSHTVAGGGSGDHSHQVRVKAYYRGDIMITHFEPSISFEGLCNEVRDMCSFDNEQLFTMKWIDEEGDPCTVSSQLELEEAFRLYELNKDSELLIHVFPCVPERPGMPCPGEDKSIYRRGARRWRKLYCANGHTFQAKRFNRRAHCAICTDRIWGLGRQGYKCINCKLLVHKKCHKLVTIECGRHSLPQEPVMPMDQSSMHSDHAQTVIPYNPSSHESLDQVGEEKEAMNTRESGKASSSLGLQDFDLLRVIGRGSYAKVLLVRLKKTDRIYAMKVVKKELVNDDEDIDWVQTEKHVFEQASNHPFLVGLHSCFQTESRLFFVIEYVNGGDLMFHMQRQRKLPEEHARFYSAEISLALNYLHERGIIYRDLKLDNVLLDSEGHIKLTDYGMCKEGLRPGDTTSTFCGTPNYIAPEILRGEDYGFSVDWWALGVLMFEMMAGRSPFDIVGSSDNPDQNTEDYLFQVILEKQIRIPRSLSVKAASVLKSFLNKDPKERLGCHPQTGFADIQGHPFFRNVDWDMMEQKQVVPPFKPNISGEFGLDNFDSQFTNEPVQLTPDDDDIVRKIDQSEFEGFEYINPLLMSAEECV", "assay": "Protein Kinase C ι assay (SPA)", "assay_type": "biochemical", "settings": "human recombinant PKCι from Sf21 insect cells, absence of PMA and phosphatidylserine, read-out: IC50, inhibition of PKC ι", "experimental": "as §1\nDependent on the efficacy of the inhibitors In the various test systems, corresponding IC50 values are calculated from concentration-inhibition curves by nonlinear regression analysis using the program GraphPad Prism (GraphPad Software Inc., San Diego, Calif.). […]"}}, "note": "Where a name gives a salt, the structure may show the parent alone."}
{"smiles": "CN(C)CCCn1ccc2cc(-c3cc(Nc4ccc(NS(=O)(=O)c5c(F)cccc5F)cc4)ncn3)ccc21", "note": "[Example 128, N-(4-{6-[1-(3-Dimethylamino-propyl)-1H-indol-5-yl]-pyrimidin-4-ylamino}-phenyl)-2,6-difluoro-benzenesulfonamide]", "values": [{"measurement": "IC50", "setting": "PKCβ1", "result": "2 to 40", "unit": "µM"}, {"measurement": "IC50", "setting": "Lck", "result": "< 3", "unit": "µM"}, {"measurement": "IC50", "setting": "responder T cells", "result": "< 1", "unit": "µM"}]}
{"smiles": "CN(C)CCCn1ccc2cc(-c3cc(Nc4ccc(NS(=O)(=O)c5ccccc5F)cc4)ncn3)ccc21", "note": "[Example 129, N-(4-{6-[1-(3-Dimethylamino-propyl)-1H-indol-5-yl]-pyrimidin-4-ylamino}-phenyl)-2-fluorobenzenesulfonamide]", "values": [{"measurement": "IC50", "setting": "Rsk1", "result": "< 1", "unit": "µM"}]}
{"smiles": "CCN(CC)CCCn1cc(-c2cc(Nc3ccc(NS(=O)(=O)c4c(F)cccc4F)cc3)ncn2)c2ccccc21", "note": "[Example 173, N-(4-{6-[1-(3-Diethylamino-propyl)-1H-indol-3-yl]-pyrimidin-4-ylamino}-phenyl)-2,6-difluoro-benzenesulfonamide formic acid salt]", "values": [{"measurement": "IC50", "setting": "PKCι", "result": "7 to 34", "unit": "µM"}, {"measurement": "IC50", "setting": "Rsk1", "result": "< 1", "unit": "µM"}]}
